Data reported in US7045343B2, “Sterilization indicator test packs” (3M Innovative Properties Company, priority 1998, dated 2006).

Key:
[1] = test system: enzyme associated with Bacillus stearothermophilus spores; experiment: Rapid enzyme fluorescence readout of dual rapid readout indicators after prevacuum steam sterilization; type: biochemical; conditions: 4-pulse prevacuum steam 121° C.
Description: (§1) The indicators prepared for the Examples were dual rapid readout indicators that provided both a rapid, enzyme-based efficacy test and a confirmatory spore outgrowth test. Spores coated on the carrier strip 16 served as the source of active enzyme whose activity was measured by the rapid enzyme test. These same spores were then incubated in the spore outgrowth portion of the test.
(§2) Bacillus stearothermophilus, commercially available as ATCC 7953 from American Type Culture Collection, Rockville, Md., was grown overnight (16 hours) at 58° C. in tryptic soy broth. This culture was used to inoculate the surface of agar plates consisting of 8 g/l nutrient broth, 4 g/l yeast extract, 0.1 g/l manganese chloride and 20 g/l agar at pH 7.2. Plates were incubated at 58° C. for 72 hours. Spores were scraped from the plates and suspended in sterile distilled water. The spores were separated from the vegetative debris by centrifuging the suspension at 7000 rpm and 4° C. for 20 minutes. The supernatant was poured off and the spores were resuspended in sterile distilled water. The cleaning procedure was repeated several times. After the final wash, the spores were suspended in sterile distilled water, at a concentration of approximately 1×10^8 spores per milliliter.
(§3) The spores were then treated with the chemicals identified in Tables 1–5. All chemicals tested were obtained from commercial sources. The spores were centrifuged at 6000 rpm for 10 minutes. The supernatant and coating chemical mixtures were heated at 60–80° C. for several minutes and vortexed to get the material into solution. The spores were then mixed into the sterilant-resistant chemical solution. The sterilant-resistant chemical solution was applied to 5×25 mm, 591 A paper strips (Schleicher & Schuell, Inc., Keene, N.H.) by pipetting 10–15 microliters to each strip for a final population of about 1×10^6 spores per strip. The strips were dried 16 hours at 37° C.
(§4) The treated spore strips were placed on the bottom of the outer container 12 of the indicator 10 and a barrier was inserted between the spore strip 16 and the inner container 18, which contained enzyme substrate. A […] ( 11/16 inch) disc of polypropylene blown microfiber material, with a weight of 200 g/m^2, commercially available as “THINSULATE™ 200-B brand Thermal Insulation” from 3M Company, St. Paul, Minn., was used as the barrier. The inner container 18 contained 0.67 ml nutrient medium, consisting of 17 g of a bacteriological peptone and a 0.17 g/l of L-alanine, as well as 0.1 g 4-methylumbelliferyl-alpha-D-glucoside, commercially available from Sigma Chemical Company, St. Louis, Mo., dissolved in 200 microliters of N,N-dimethylformamide, and 0.03 g bromocresol purple pH indicator dye, per liter of water. The pH of the enzyme substrate and nutrient medium solution was adjusted to 7.6 with 0.1N sodium hydroxide.
(§5) Sterilization indicators were made as described above with each of the chemicals and concentrations described in Table 1. Control indicators were made using untreated spores. The indicators were placed in metal instrument trays and exposed at 121° C. in a Getinge Steam Sterilizer (Getinge International, Inc., 1100 Towbin Ave., Lakewood, N.J.) using a 4-pulse prevacuum cycle at 121° C. with a vacuum level of 0.075–0.085 bar and a steam pulse to 1.00 bar for each pulse. Indicators were exposed in the sterilizer for between 7 and 13 minutes. This cycle is depicted in the time-pressure diagram in FIG. 5. After exposure the inner containers containing the enzyme substrate and nutrient medium were crushed and the indicators were incubated at 60° C. The indicators were examined for fluorescence using a 3M™ ATTEST™ Model 190 Rapid Autoreader, commercially available from 3M Company, St. Paul, Minn. Additionally, spore growth, as indicated by a color change from purple to yellow, was determined visually after 168 hours of incubation at 60° C. […]

[2] = test system: Bacillus stearothermophilus spores; experiment: Spore outgrowth (color change) of indicators after prevacuum steam sterilization; type: cell-based; conditions: 4-pulse prevacuum steam 121° C.
Description: as §1, §2, §3, §4, §5

[3] = Example 2, 5 mg/ml coating, 7–13 min
[4] = Example 2, 10 mg/ml coating, 7–13 min
[5] = Example 2, 20 mg/ml coating, 7–13 min
[6] = Example 2, 40 mg/ml coating, 7–13 min
[7] = Example 2, 80 mg/ml coating, 7–13 min
[8] = Example 5, 50 mg/ml coating, 7–13 min
[9] = Example 5, 100 mg/ml coating, 7–13 min
[10] = Example 4, 50 mg/ml coating, 7–18 min
[11] = Example 4, 100 mg/ml coating, 7–18 min

Compound: OCC(O)COCC(O)COCC(O)CO (stereo not drawn) [Triglycerol]
- accuracy of sterilization indicators compared to indicators made with untreated spores [1]: did not improve the accuracy
- FLUORESCENCE - PERCENT POSITIVE 1 HR [1, 3]: 0%
- FLUORESCENCE - PERCENT POSITIVE 2 HR [1, 3]: 0%
- FLUORESCENCE - PERCENT POSITIVE 3 HR [1, 3]: 0%
- FLUORESCENCE - PERCENT POSITIVE 4 HR [1, 3]: 10.0%
- FLUORESCENCE - PERCENT POSITIVE 5 HR [1, 3]: 30.0%
- FLUORESCENCE - PERCENT POSITIVE 6 HR [1, 3]: 40.0%
- FLUORESCENCE - PERCENT POSITIVE 1 HR [1, 4]: 0%
- FLUORESCENCE - PERCENT POSITIVE 2 HR [1, 4]: 6.7%
- FLUORESCENCE - PERCENT POSITIVE 3 HR [1, 4]: 20.0%
- FLUORESCENCE - PERCENT POSITIVE 4 HR [1, 4]: 26.7%
- FLUORESCENCE - PERCENT POSITIVE 5 HR [1, 4]: 53.3%
- FLUORESCENCE - PERCENT POSITIVE 6 HR [1, 4]: 60.0%
- FLUORESCENCE - PERCENT POSITIVE 1 HR [1, 5]: 0%
- FLUORESCENCE - PERCENT POSITIVE 2 HR [1, 5]: 0%
- FLUORESCENCE - PERCENT POSITIVE 3 HR [1, 5]: 8.3%
- FLUORESCENCE - PERCENT POSITIVE 4 HR [1, 5]: 29.2%
- FLUORESCENCE - PERCENT POSITIVE 5 HR [1, 5]: 41.7%
- FLUORESCENCE - PERCENT POSITIVE 6 HR [1, 5]: 45.8%
- FLUORESCENCE - PERCENT POSITIVE 1 HR [1, 6]: 0%
- FLUORESCENCE - PERCENT POSITIVE 2 HR [1, 6]: 0%
- FLUORESCENCE - PERCENT POSITIVE 3 HR [1, 6]: 29.6%
- FLUORESCENCE - PERCENT POSITIVE 4 HR [1, 6]: 48.1%
- FLUORESCENCE - PERCENT POSITIVE 5 HR [1, 6]: 51.9%
- FLUORESCENCE - PERCENT POSITIVE 6 HR [1, 6]: 63.0%
- FLUORESCENCE - PERCENT POSITIVE 1 HR [1, 7]: 0%
- FLUORESCENCE - PERCENT POSITIVE 2 HR [1, 7]: 3.2%
- FLUORESCENCE - PERCENT POSITIVE 3 HR [1, 7]: 38.7%
- FLUORESCENCE - PERCENT POSITIVE 4 HR [1, 7]: 51.6%
- FLUORESCENCE - PERCENT POSITIVE 5 HR [1, 7]: 58.1%
- FLUORESCENCE - PERCENT POSITIVE 6 HR [1, 7]: 64.5%
- NO. GROWTH POSITIVE 168 HR [2, 3]: 10
- NO. GROWTH POSITIVE 168 HR [2, 4]: 15
- NO. GROWTH POSITIVE 168 HR [2, 5]: 24
- NO. GROWTH POSITIVE 168 HR [2, 6]: 27
- NO. GROWTH POSITIVE 168 HR [2, 7]: 31

Compound: Decaglyceryl Diisostearate
- accuracy of sterilization indicators compared to indicators made with untreated spores [1]: improved
- FLUORESCENCE - PERCENT POSITIVE 1 HR [1, 8]: 30%
- FLUORESCENCE - PERCENT POSITIVE 2 HR [1, 8]: 80.0%
- FLUORESCENCE - PERCENT POSITIVE 3 HR [1, 8]: 100%
- FLUORESCENCE - PERCENT POSITIVE 4 HR [1, 8]: 100%
- FLUORESCENCE - PERCENT POSITIVE 1 HR [1, 9]: 28.6%
- FLUORESCENCE - PERCENT POSITIVE 2 HR [1, 9]: 100.0%
- FLUORESCENCE - PERCENT POSITIVE 3 HR [1, 9]: 100%
- FLUORESCENCE - PERCENT POSITIVE 4 HR [1, 9]: 100%
- NO. GROWTH POSITIVE 168 HR [2, 8]: 10
- NO. GROWTH POSITIVE 168 HR [2, 9]: 14

Compound: Decaglyceryl Monoisostearate
- accuracy of sterilization indicators compared to indicators made with untreated spores [1]: improved
- FLUORESCENCE - PERCENT POSITIVE 1 HR [1, 8]: 33.3%
- FLUORESCENCE - PERCENT POSITIVE 2 HR [1, 8]: 77.8%
- FLUORESCENCE - PERCENT POSITIVE 3 HR [1, 8]: 88.9%
- FLUORESCENCE - PERCENT POSITIVE 4 HR [1, 8]: 88.9%
- FLUORESCENCE - PERCENT POSITIVE 1 HR [1, 9]: 37.5%
- FLUORESCENCE - PERCENT POSITIVE 2 HR [1, 9]: 100%
- FLUORESCENCE - PERCENT POSITIVE 3 HR [1, 9]: 100%
- FLUORESCENCE - PERCENT POSITIVE 4 HR [1, 9]: 100%
- NO. GROWTH POSITIVE 168 HR [2, 8]: 9
- NO. GROWTH POSITIVE 168 HR [2, 9]: 8

Compound: Decaglyceryl Monolaurate
- accuracy of sterilization indicators compared to indicators made with untreated spores [1]: improved
- FLUORESCENCE - PERCENT POSITIVE 1 HR [1, 10]: 0%
- FLUORESCENCE - PERCENT POSITIVE 2 HR [1, 10]: 27.3%
- FLUORESCENCE - PERCENT POSITIVE 3 HR [1, 10]: 72.7%
- FLUORESCENCE - PERCENT POSITIVE 4 HR [1, 10]: 72.7%
- FLUORESCENCE - PERCENT POSITIVE 1 HR [1, 11]: 87%
- FLUORESCENCE - PERCENT POSITIVE 2 HR [1, 11]: 100.0%
- FLUORESCENCE - PERCENT POSITIVE 3 HR [1, 11]: 100.0%
- FLUORESCENCE - PERCENT POSITIVE 4 HR [1, 11]: 100.0%
- NO. GROWTH POSITIVE 168 HR [2, 10]: 11
- NO. GROWTH POSITIVE 168 HR [2, 11]: 23
